From patent US20100168102A9, “Amide Derivatives as Kinase Inhibitors” (Devgen NV, priority 2005, published 2010)
Where a name gives a salt, the structure may show the parent alone. Read-outs that look alike come from different tables or passages of the source.

What was measured:
[1] = target: T1, PKC theta (Homo sapiens, UniProt Q04759); experiment: Biochemical assay for PKC theta (fluorescence polarization, Protein Kinase C Assay Kit, Red)
T1 construct: purchased Invitrogen P2996
Description: The compounds were tested for inhibition of PKC theta.
The inhibition assays were performed with a fluorescence polarization (FP) assay using the commercially available Protein Kinase C Assay Kit, Red, from Invitrogen (Product ID. No. P2941), essentially in accordance with the protocol supplied by the manufacturer. The substrate used was […] (Mw 1561), also obtained from Invitrogen (Product ID No. P2760). The isozyme PKC theta was also obtained from Invitrogen (Product ID No. P2996).
Staurosporine was used as a positive control (2 μM).
To perform the assay, 2 μl, of a solution of the compound to be tested in DMSO (at each concentration) was added to 6 μl of a solution of the enzyme in 10 mM HEPES, 5 mM dithiotreitol, 0.1% Triton X-100, pH 7.4. The final concentration of the enzymes was 60 ng/ml.
After incubating for 30 minutes at room temperature, 4 μl of a mixture of ATP and the protein substrate in 60 mM HEPES (pH7.4), 15 mM MgCl2, 0.3 mM CaCl2, 0.06% NP40 was added. The final concentration of the ATP was 2.5 μM and final concentration of protein substrate was 1 μM.
After incubating for 80 minutes at room temperature, 3 μl of a mix solution of 500 mM EDTA (stop solution) and the Rhodamine-based PKC Red Tracer (from the Protein Kinase C Assay Kit) in BGG/phosphate buffer (pH7.4) with 0.02% NaN3 and 0.1% Triton X-100 was added and 5 μl of a the Anti-Phosphoserine antibody (also from the Protein Kinase C Assay Kit) in BGG/phosphate buffer (pH7.4) with 0.02% NaN3.
The mixture thus obtained (total volume: 20 μl) was incubated for 60 minutes at room temperature, upon which the fluorescence polarization was measured using an automated plate reader (Perkin Elmer, Model Envision 2100-0010 HTS) with FP filters for rhodamine: excitation fitter FITC FP 531 and emission filters FITC FP P-pol 595 and FITC FP S-pol 595 (Perkin-Elmer). The results were fitted to a curve using the XL-Fit algorithm and IC50 values were calculated for each fitted curve, again using the XL-Fit algorithm.

[2] = target: T2, PKC epsilon (Homo sapiens, UniProt Q02156); experiment: Biochemical assay for PKC epsilon (fluorescence polarization, Protein Kinase C Assay Kit, Red); conditions: read-out: IC50 μM PKCε
T2 construct: purchased Invitrogen P2282
T2 sequence (Q02156 1-737): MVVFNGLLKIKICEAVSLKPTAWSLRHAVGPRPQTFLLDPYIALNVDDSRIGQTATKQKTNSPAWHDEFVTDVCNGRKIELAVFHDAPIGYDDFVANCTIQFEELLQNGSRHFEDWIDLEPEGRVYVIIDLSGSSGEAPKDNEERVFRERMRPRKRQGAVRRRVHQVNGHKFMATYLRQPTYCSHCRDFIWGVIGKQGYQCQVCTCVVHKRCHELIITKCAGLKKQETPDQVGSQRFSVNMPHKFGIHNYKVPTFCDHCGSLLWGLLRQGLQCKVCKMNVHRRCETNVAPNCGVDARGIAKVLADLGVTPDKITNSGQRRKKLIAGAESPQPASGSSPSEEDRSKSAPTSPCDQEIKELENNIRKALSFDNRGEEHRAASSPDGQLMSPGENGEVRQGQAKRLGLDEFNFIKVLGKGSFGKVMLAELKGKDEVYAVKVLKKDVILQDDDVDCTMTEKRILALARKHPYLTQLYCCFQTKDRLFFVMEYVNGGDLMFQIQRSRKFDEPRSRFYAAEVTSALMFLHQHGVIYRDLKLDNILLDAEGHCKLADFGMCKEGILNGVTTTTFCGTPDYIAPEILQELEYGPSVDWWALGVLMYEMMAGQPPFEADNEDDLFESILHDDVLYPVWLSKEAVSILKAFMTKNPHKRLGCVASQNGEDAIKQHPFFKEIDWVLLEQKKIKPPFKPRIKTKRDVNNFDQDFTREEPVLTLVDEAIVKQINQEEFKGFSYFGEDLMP
Method in brief: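 Read-out was fluorescence-polarization competition between phosphorylated substrate and a rhodamine PKC tracer for an anti-phosphoserine antibody, added with EDTA stop after an 80 min room-temperature kinase reaction with ATP and protein substrate (Mg2+/Ca2+ buffer). Enzyme (10 ng/ml final) was preincubated with compound for 30 min.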

[3] = test system: PKCε; experiment: Reporter assay (PathDetect trans reporter, Elk/SEAP) in reporter cell-lines over-expressing PKCε; assay type: cell-based
Text: Whereas the reporter assay is focused on PKCε specific inhibition in a recombinant system, the monocytes assay is a biomarker assay that can be performed in isolated monocytes, full blood and in vivo to follow the pharmacological reduction of cytokine production:
The reporter assay exploits the effect of over-expressed PKCε on kinase activation and phosphorylation of a transcription factor to evaluate the potency and selectivity of PKCε inhibitors in a cellular context.
It has been shown by jae-Won Soh et al (MCB, February 1999 p 1313-1324) that over-expression of PKC epsilon results in the activation of MAPK-pathway (c-raf/MEK/ERK) leading to the activation of Elk transcription factor. This event can be monitored using the PathDetect trans reporter assay system (Stratagene): pFA2-ELK codes for a fusion protein between the Gal4 DNA binding domain and the transactivation domain of Elk which drives the expression of a secreted alkaline phosphatase (SEAP) reporter gene.
Compounds are incubated with reporter cell-lines either over-expressing PKCε, leading to continued activation of the kinase, or mock transfected cells. Inhibition of the PKCε induced signal in the absence of an effect on the basal level (mock transfected cells) is indicative for selective PKCε inhibition.

[4] = target: T3, human ROCKα/ROCKII mix (Homo sapiens, UniProt O75116); experiment: Biochemical assay for ROCK (fluorescence polarization, ROCK IMAP Kit)
T3 construct: purchased Upstate Biotechnology 14-451

[5] = Table 2, compounds of Formula XIII

T1 sequence (Q04759 whole entry): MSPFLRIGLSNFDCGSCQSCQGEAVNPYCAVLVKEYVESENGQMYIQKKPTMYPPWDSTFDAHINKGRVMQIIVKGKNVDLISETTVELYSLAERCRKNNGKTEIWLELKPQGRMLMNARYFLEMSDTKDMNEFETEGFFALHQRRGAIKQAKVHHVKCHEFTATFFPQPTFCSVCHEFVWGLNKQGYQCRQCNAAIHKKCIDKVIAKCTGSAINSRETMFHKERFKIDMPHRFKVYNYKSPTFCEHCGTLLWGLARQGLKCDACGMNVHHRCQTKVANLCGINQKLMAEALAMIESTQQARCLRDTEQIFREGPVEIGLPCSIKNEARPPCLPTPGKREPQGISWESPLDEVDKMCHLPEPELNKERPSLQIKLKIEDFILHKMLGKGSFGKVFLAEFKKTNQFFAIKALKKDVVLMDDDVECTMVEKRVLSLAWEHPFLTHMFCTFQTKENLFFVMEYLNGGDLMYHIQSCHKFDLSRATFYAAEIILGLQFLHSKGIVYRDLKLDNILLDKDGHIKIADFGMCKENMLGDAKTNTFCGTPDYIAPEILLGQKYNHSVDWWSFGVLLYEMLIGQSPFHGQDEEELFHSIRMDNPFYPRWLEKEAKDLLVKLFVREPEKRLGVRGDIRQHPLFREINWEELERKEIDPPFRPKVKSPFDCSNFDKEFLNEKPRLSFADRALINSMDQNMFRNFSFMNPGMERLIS
T3 sequence (O75116 11-552 limits assumed): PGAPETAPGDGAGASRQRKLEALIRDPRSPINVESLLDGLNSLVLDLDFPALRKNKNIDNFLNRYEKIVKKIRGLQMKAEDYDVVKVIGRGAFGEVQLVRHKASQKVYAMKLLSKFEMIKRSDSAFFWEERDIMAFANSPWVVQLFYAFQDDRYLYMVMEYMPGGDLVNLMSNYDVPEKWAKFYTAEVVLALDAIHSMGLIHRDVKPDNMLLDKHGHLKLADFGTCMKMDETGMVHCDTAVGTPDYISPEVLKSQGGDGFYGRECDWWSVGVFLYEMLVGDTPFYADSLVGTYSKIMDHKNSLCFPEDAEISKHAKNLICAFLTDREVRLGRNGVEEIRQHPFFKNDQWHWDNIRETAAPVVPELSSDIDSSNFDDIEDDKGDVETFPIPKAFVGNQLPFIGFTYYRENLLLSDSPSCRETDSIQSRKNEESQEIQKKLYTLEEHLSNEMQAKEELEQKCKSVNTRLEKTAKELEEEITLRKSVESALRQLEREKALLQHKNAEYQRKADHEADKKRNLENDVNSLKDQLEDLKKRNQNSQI

IC50 [1] | IC50 [2, 5] | IC50 [3] | IC50 [4, 5] | IC50 [4] | IC50 [2] | SMILES
50 to 500 nM | < 0.05 µM | < 5000 nM |  |  |  | CC(C)(C(=O)NCC(N)c1ccc(C(=O)Nc2ccncc2)cc1)c1ccc(Cl)cc1 (centres unmarked) [Compound 335, 4-{1-Amino-2-[2-(4-chloro-phenyl)-2-methyl-propionylamino]-ethyl}-N-pyridin-4-yl-benzamide]
< 50 nM | < 0.05 µM | < 5000 nM | 0.05 to 0.5 µM |  |  | CC(C)(C(=O)NCC(N)c1ccc(C(=O)Nc2ccncc2)cc1)c1ccc(F)cc1 (centres unmarked) [Compound 339, 4-{1-Amino-2-[2-(4-fluoro-phenyl)-2-methyl-propionylamino]-ethyl}-N-pyridin-4-yl-benzamide]
< 50 nM |  | < 5000 nM |  | 0.05 to 0.5 µM | < 0.05 µM | CC(C)(C(=O)NC[C@@H](N)c1ccc(C(=O)Nc2ccncc2)cc1)c1ccc(Cl)cc1 [Compound 399, 4-{(S)-1-Amino-2-[2-(4-chloro-phenyl)-2-methyl-propionylamino]-ethyl}-N-pyridin-4-yl-benzamide dihydrochloric acid salt]
